The values below come from the supplement of paper PMC10307832.

Common to all, as to experiment: relative viability (nuclei count vs DMSO), 5 days (fraction); higher = more cells survive
Compound in the experiment “Pemetrexed + OSI-027”: Nc1nc2[nH]cc(CCc3ccc(C(=O)N[C@@H](CCC(=O)O)C(=O)O)cc3)c2c(=O)[nH]1 [Pemetrexed] + COc1cccc2cc(-c3nc([C@H]4CC[C@H](C(=O)O)CC4)n4ncnc(N)c34)[nH]c12 [OSI-027] (partner 0.5 µM)
In outline:
(§1)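 Nuclei were stained with Hoechst during a one-step fixation (final 0.05% Triton X-100, 1% formaldehyde, 1 ug/ml Hoechst) carried out 5 days after dosing, then counted on 4× images. The cells, lung cancer lines in 1536-well plates, had been dosed by pin tool the day after seeding with one drug alone or a fixed anchor-drug dose plus five library-drug doses (not always all listed) in √10 steps. Relative viability is the nuclei count in treated wells divided by that in vehicle wells, and each value is the median of duplicate plates.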

Compound in the experiment “Pemetrexed + Navitoclax”: Nc1nc2[nH]cc(CCc3ccc(C(=O)N[C@@H](CCC(=O)O)C(=O)O)cc3)c2c(=O)[nH]1 [Pemetrexed] + CC1(C)CCC(c2ccc(Cl)cc2)=C(CN2CCN(c3ccc(C(=O)NS(=O)(=O)c4ccc(N[C@H](CCN5CCOCC5)CSc5ccccc5)c(S(=O)(=O)C(F)(F)F)c4)cc3)CC2)C1 [Navitoclax] (partner 0.5 µM)
A digest of the protocol:
as §1

Compound in the experiment “Idelalisib + Vorinostat”: CC[C@H](Nc1ncnc2[nH]cnc12)c1nc2cccc(F)c2c(=O)n1-c1ccccc1 [Idelalisib] + O=C(CCCCCCC(=O)Nc1ccccc1)NO [Vorinostat] (partner 1 µM)
In outline: as §1

Compound in the experiment “Idelalisib + Olaparib”: CC[C@H](Nc1ncnc2[nH]cnc12)c1nc2cccc(F)c2c(=O)n1-c1ccccc1 [Idelalisib] + O=C(c1cc(Cc2n[nH]c(=O)c3ccccc23)ccc1F)N1CCN(C(=O)C2CC2)CC1 [Olaparib] (partner 8 µM)
In outline: as §1

In the case of UMC-11, the relative viability with Pemetrexed + OSI-027 (first compound 0.002 µM) was 0.501; with Pemetrexed + OSI-027 (first compound 0.006325 µM) it was 0.482; in the experiment with Pemetrexed + OSI-027 (first compound 0.02 µM), 0.481; with Pemetrexed + OSI-027 (first compound 0.06325 µM) it was 0.522; with Pemetrexed + OSI-027 (first compound 0.2 µM), 0.487; in the experiment with Pemetrexed + Navitoclax (first compound 0.002 µM) it was 0.292. The relative viability stood at 0.283 with Pemetrexed + Navitoclax (first compound 0.006325 µM); 0.354 with Pemetrexed + Navitoclax (first compound 0.02 µM); 0.312 in the experiment with Pemetrexed + Navitoclax (first compound 0.06325 µM); 0.344 in the experiment with Pemetrexed + Navitoclax (first compound 0.2 µM); 0.474 with Idelalisib + Vorinostat (first compound 0.04 µM); 0.392 with Idelalisib + Vorinostat (first compound 0.1265 µM). In addition, the relative viability with Idelalisib + Vorinostat (first compound 0.4 µM) is 0.363; with Idelalisib + Vorinostat (first compound 1.265 µM), 0.437; with Idelalisib + Vorinostat (first compound 4 µM), 0.358; with Idelalisib + Olaparib (first compound 0.04 µM), 0.416; in the experiment with Idelalisib + Olaparib (first compound 0.1265 µM), 0.347; in the experiment with Idelalisib + Olaparib (first compound 0.4 µM) it was 0.407. Moreover, the values for the relative viability with Idelalisib + Olaparib (first compound 1.265 µM) and in the experiment with Idelalisib + Olaparib (first compound 4 µM) were 0.631 and 0.351, respectively.
